Results: ChEMBL document CHEMBL1201861, “Genomics of Drug Sensitity in Cancer screening data, Wellcome Trust Sanger Institute”

Tests used:
Assay in all cases: cells
COLO-824 = assay type: functional, cell-based, Homo sapiens; conditions: Homo sapiens, COLO-824
Description: SANGER: Inhibition of human COLO-824 cell growth in a cell viability assay.

DMS-114 = assay type: functional, cell-based, Homo sapiens; conditions: Homo sapiens, DMS-114
EFM-19 = assay type: functional, cell-based, Homo sapiens; conditions: Homo sapiens, EFM-19;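 note: growth inhibition of human EFM-19 cells, measured in a cell viability assay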
Description: SANGER: Inhibition of human EFM-19 cell growth in a cell viability assay.

EW-16 = assay type: functional, cell-based, Homo sapiens; conditions: Homo sapiens, EW-16;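 note: growth inhibition of human EW-16 cells, read out as cell viability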
Description: SANGER: Inhibition of human EW-16 cell growth in a cell viability assay.

GAMG = assay type: functional, cell-based, Homo sapiens; conditions: Homo sapiens, GAMG;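 note: cell growth inhibition measured by a viability assay in the GAMG human cell line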
Description: SANGER: Inhibition of human GAMG cell growth in a cell viability assay.

GB-1 = assay type: functional, cell-based, Homo sapiens; conditions: Homo sapiens, GB-1;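 note: growth of GB-1 cells judged by a viability assay, IC50 marks the concentration inhibiting growth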
Description: SANGER: Inhibition of human GB-1 cell growth in a cell viability assay.

GP5d = assay type: functional, cell-based, Homo sapiens; conditions: Homo sapiens, GP5d;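 note: growth inhibition of human GP5d cells, read out with a cell viability assay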
Description: SANGER: Inhibition of human GP5d cell growth in a cell viability assay.

HSC-2 = assay type: functional, cell-based, Homo sapiens; conditions: Homo sapiens, HSC-2;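 note: growth inhibition of human HSC-2 cells, read out by a cell viability assay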
Description: SANGER: Inhibition of human HSC-2 cell growth in a cell viability assay.

HSC-3 = assay type: functional, cell-based, Homo sapiens; conditions: Homo sapiens, HSC-3
Description: SANGER: Inhibition of human HSC-3 cell growth in a cell viability assay.

HT-1376 = assay type: functional, cell-based, Homo sapiens; conditions: Homo sapiens, HT-1376
Description: SANGER: Inhibition of human HT-1376 cell growth in a cell viability assay.

IGR-1 = assay type: functional, cell-based, Homo sapiens; conditions: Homo sapiens, IGR-1;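 note: growth inhibition of human IGR-1 cells, read out with a cell viability assay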
Description: SANGER: Inhibition of human IGR-1 cell growth in a cell viability assay.

JVM-2 = assay type: functional, cell-based; conditions: Homo sapiens;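 note: growth inhibition of JVM-2 cells determined by a cell viability assay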
Description: SANGER: Inhibition of human JVM-2 cell growth in a cell viability assay.

KYSE-180 = assay type: functional, cell-based, Homo sapiens; conditions: Homo sapiens, KYSE-180;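 note: growth inhibition of KYSE-180 cells, read out with a cell viability assay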
Description: SANGER: Inhibition of human KYSE-180 cell growth in a cell viability assay.

KYSE-510 = assay type: functional, cell-based, Homo sapiens; conditions: Homo sapiens, KYSE-510;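 note: cell viability readout used to measure how strongly growth of the cell line is suppressed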
Description: SANGER: Inhibition of human KYSE-510 cell growth in a cell viability assay.

LB1047-RCC = assay type: functional, cell-based, Homo sapiens; conditions: Homo sapiens, LB1047-RCC;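 note: inhibition of cell growth, determined with a cell viability assay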
Description: SANGER: Inhibition of human LB1047-RCC cell growth in a cell viability assay.

LS-411N = assay type: functional, cell-based, Homo sapiens; conditions: Homo sapiens, LS-411N
M059J = assay type: functional, cell-based, Homo sapiens; conditions: Homo sapiens, M059J;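 note: growth inhibition of M059J cells, read out with a cell viability assay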
Description: SANGER: Inhibition of human M059J cell growth in a cell viability assay.

MHH-ES-1 = assay type: functional, cell-based, Homo sapiens; conditions: Homo sapiens, MHH-ES-1;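 note: cell growth inhibition measured by a cell viability assay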
Description: SANGER: Inhibition of human MHH-ES-1 cell growth in a cell viability assay.

MLMA = assay type: functional, cell-based, Homo sapiens; conditions: Homo sapiens, MLMA;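 note: growth inhibition of MLMA cells (human), determined through a cell viability readout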
Description: SANGER: Inhibition of human MLMA cell growth in a cell viability assay.

MS-1 = assay type: functional, cell-based; conditions: Homo sapiens
Description: SANGER: Inhibition of human MS-1 cell growth in a cell viability assay.

MeWo = assay type: functional, cell-based, Homo sapiens; conditions: Homo sapiens, MeWo;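 note: growth inhibition of MeWo cells, determined by a cell viability readout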
Description: SANGER: Inhibition of human Mewo cell growth in a cell viability assay.

NB13 = assay type: functional, cell-based, Homo sapiens; conditions: Homo sapiens, NB13;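 note: cell viability readout measuring growth inhibition of human NB13 cells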
Description: SANGER: Inhibition of human NB13 cell growth in a cell viability assay.

NB6 = assay type: functional, cell-based, Homo sapiens; conditions: Homo sapiens, NB6;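 note: growth inhibition of NB6 cells, read out by a cell viability assay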
Description: SANGER: Inhibition of human NB6 cell growth in a cell viability assay.

NCI-H1299 = assay type: functional, cell-based, Homo sapiens; conditions: Homo sapiens, NCI-H1299;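 note: growth inhibition of human NCI-H1299 cells, read out by a cell viability assay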
Description: SANGER: Inhibition of human NCI-H1299 cell growth in a cell viability assay.

NCI-H1993 = assay type: functional, cell-based, Homo sapiens; conditions: Homo sapiens, NCI-H1993;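 note: growth inhibition of the cancer cell line, assessed with a cell viability assay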
Description: SANGER: Inhibition of human NCI-H1993 cell growth in a cell viability assay.

NCI-H2030 = assay type: functional, cell-based, Homo sapiens; conditions: Homo sapiens, NCI-H2030;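 note: growth inhibition of human NCI-H2030 cells, read out by a cell viability assay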
Description: SANGER: Inhibition of human NCI-H2030 cell growth in a cell viability assay.

NCI-H2170 = assay type: functional, cell-based, Homo sapiens; conditions: Homo sapiens, NCI-H2170;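 note: cell viability assay measuring growth inhibition of human NCI-H2170 cancer cells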
Description: SANGER: Inhibition of human NCI-H2170 cell growth in a cell viability assay.

NCI-H226 = assay type: functional, cell-based, Homo sapiens; conditions: Homo sapiens, NCI-H226;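 note: cell viability read-out used to gauge growth inhibition of the cells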
Description: SANGER: Inhibition of human NCI-H226 cell growth in a cell viability assay.

NCI-H2342 = assay type: functional, cell-based; conditions: Homo sapiens;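 note: growth inhibition of the cancer cell line, determined with a cell viability assay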
Description: SANGER: Inhibition of human NCI-H2342 cell growth in a cell viability assay.

NCI-H2452 = assay type: functional, cell-based, Homo sapiens; conditions: Homo sapiens, NCI-H2452;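 note: growth inhibition of NCI-H2452 cells, read out with a cell viability assay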
Description: SANGER: Inhibition of human NCI-H2452 cell growth in a cell viability assay.

NCI-H727 = assay type: functional, cell-based, Homo sapiens; conditions: Homo sapiens, NCI-H727;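 note: growth inhibition of human NCI-H727 cells, read out with a cell viability assay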
Description: SANGER: Inhibition of human NCI-H727 cell growth in a cell viability assay.

NOS-1 = assay type: functional, cell-based, Homo sapiens; conditions: Homo sapiens, NOS-1;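 note: growth inhibition of the human NOS-1 cell line, read out with a cell viability assay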
Description: SANGER: Inhibition of human NOS-1 cell growth in a cell viability assay.

RCC10RGB = assay type: functional, cell-based, Homo sapiens; conditions: Homo sapiens, RCC10RGB;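 note: growth inhibition of human RCC10RGB cells, read out by a cell viability assay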
Description: SANGER: Inhibition of human RCC10RGB cell growth in a cell viability assay.

RO82-W-1 = assay type: functional, cell-based, Homo sapiens; conditions: Homo sapiens, RO82-W-1;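 note: growth inhibition of human RO82-W-1 cells, measured with a cell viability assay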
Description: SANGER: Inhibition of human RO82-W-1 cell growth in a cell viability assay.

SK-LU-1 = assay type: functional, cell-based, Homo sapiens; conditions: Homo sapiens, SK-LU-1;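 note: cell viability assay measuring growth inhibition of human SK-LU-1 cells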
Description: SANGER: Inhibition of human SK-LU-1 cell growth in a cell viability assay.

SNB-75 = assay type: functional, cell-based, Homo sapiens; conditions: Homo sapiens, SNB-75;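 note: cell viability assay measuring growth inhibition of human SNB-75 cells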
Description: SANGER: Inhibition of human SNB75 cell growth in a cell viability assay.

SW1710 = assay type: functional, cell-based, Homo sapiens; conditions: Homo sapiens, SW1710;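 note: growth inhibition of SW1710 cells, determined with a cell viability assay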
Description: SANGER: Inhibition of human SW1710 cell growth in a cell viability assay.

SW1783 = assay type: functional, cell-based; conditions: Homo sapiens;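 note: cell growth inhibition measured with a viability assay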
Description: SANGER: Inhibition of human SW1783 cell growth in a cell viability assay.

SW684 = assay type: functional, cell-based, Homo sapiens; conditions: Homo sapiens, SW684;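 note: growth inhibition of human SW684 cells, measured by a cell viability assay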
Description: SANGER: Inhibition of human SW684 cell growth in a cell viability assay.

T47D = assay type: functional, cell-based, Homo sapiens; conditions: Homo sapiens, T47D;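 note: growth inhibition of human T47D cells, measured with a cell viability assay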
Description: SANGER: Inhibition of human T47D cell growth in a cell viability assay.

769-P = assay type: functional, cell-based, Homo sapiens; conditions: Homo sapiens, 769-P
Description: SANGER: Inhibition of human 769-P cell growth in a cell viability assay.

A101D = assay type: functional, cell-based, Homo sapiens; conditions: Homo sapiens, A101D;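 note: growth inhibition of the cell line, measured with a viability assay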
Description: SANGER: Inhibition of human A101D cell growth in a cell viability assay.

A253 cell line = assay type: functional, cell-based, Homo sapiens; conditions: Homo sapiens, A253;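 note: growth inhibition of A253 cells, read out with a cell viability assay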
Description: SANGER: Inhibition of human A253 cell growth in a cell viability assay.

A-375 = assay type: functional, cell-based, Homo sapiens; conditions: Homo sapiens, A-375;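 note: growth inhibition of A375 cells, read out with a cell viability assay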
Description: SANGER: Inhibition of human A375 cell growth in a cell viability assay.

A388 = assay type: functional, cell-based, Homo sapiens; conditions: Homo sapiens, A388;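 note: growth inhibition of human A388 cells, read out with a cell viability assay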
Description: SANGER: Inhibition of human A388 cell growth in a cell viability assay.

AU565 = assay type: functional, cell-based, Homo sapiens; conditions: Homo sapiens, AU565;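 note: cell viability assay measuring growth inhibition of human AU565 cells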
Description: SANGER: Inhibition of human AU565 cell growth in a cell viability assay.

C8166 = assay type: functional, cell-based; conditions: Homo sapiens;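 note: growth inhibition of human C8166 cells measured by a cell viability assay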
Description: SANGER: Inhibition of human C8166 cell growth in a cell viability assay.

UACC-893 = assay type: functional, cell-based, Homo sapiens; conditions: Homo sapiens, UACC-893
Description: SANGER: Inhibition of human UACC-893 cell growth in a cell viability assay.

UMC-11 = assay type: functional, cell-based, Homo sapiens; conditions: Homo sapiens, UMC-11;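 note: growth inhibition of UMC-11 cells, read out with a cell viability assay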
Description: SANGER: Inhibition of human UMC-11 cell growth in a cell viability assay.

D-247MG = assay type: functional, cell-based, Homo sapiens; conditions: Homo sapiens, D-247MG
Description: SANGER: Inhibition of human D-247MG cell growth in a cell viability assay.

Work on `Cc1ccc(Nc2nccc(N(C)c3ccc4c(C)n(C)nc4c3)n2)cc1S(N)(=O)=O` [PAZOPANIB] yielded an IC50 (COLO-824) greater than 8 µM, an IC50 (DMS-114) greater than 8 µM and an IC50 (EFM-19) greater than 8 µM. It also gave an IC50 (EW-16) greater than 8 µM, an IC50 (GAMG) of 6.18 µM and an IC50 (GB-1) of 5.73 µM. For the same compound, the IC50 (GP5d) was greater than 8 µM, the IC50 (HSC-2) was greater than 8 µM and the IC50 (HSC-3) was greater than 8 µM. The IC50 (HT-1376) was greater than 8 µM, the IC50 (IGR-1) was greater than 8 µM and the IC50 (JVM-2) was greater than 8 µM. It also gave an IC50 (KYSE-180) greater than 8 µM, an IC50 (KYSE-510) greater than 8 µM and an IC50 (LB1047-RCC) of 3.53 µM. For the same compound, the IC50 (LS-411N) was greater than 8 µM, the IC50 (M059J) was greater than 8 µM and the IC50 (MHH-ES-1) was greater than 8 µM. For the same compound, the IC50 (MLMA) was greater than 8 µM, the IC50 (MS-1) was greater than 8 µM and the IC50 (MeWo) was greater than 8 µM. The IC50 (NB13) was greater than 8 µM, the IC50 (NB6) was greater than 8 µM and the IC50 (NCI-H1299) was greater than 8 µM. The IC50 (NCI-H1993) was greater than 8 µM, the IC50 (NCI-H2030) was greater than 8 µM and the IC50 (NCI-H2170) was greater than 8 µM. For the same compound, the IC50 (NCI-H226) was greater than 8 µM, the IC50 (NCI-H2342) was 3.13 µM and the IC50 (NCI-H2452) was greater than 8 µM. For the same compound, the IC50 (NCI-H727) was 5.41 µM, the IC50 (NOS-1) was 0.66 µM and the IC50 (RCC10RGB) was greater than 8 µM. It also gave an IC50 (RO82-W-1) greater than 8 µM, an IC50 (SK-LU-1) of 3.19 µM and an IC50 (SNB-75) of 6.57 µM. The IC50 (SW1710) was 4.47 µM, the IC50 (SW1783) was greater than 8 µM and the IC50 (SW684) was greater than 8 µM. It also gave an IC50 (T47D) greater than 8 µM, an IC50 (769-P) greater than 8 µM and an IC50 (A101D) greater than 8 µM. It also gave an IC50 (A253 cell line) greater than 8 µM, an IC50 (A-375) greater than 8 µM and an IC50 (A388) greater than 8 µM. It also gave an IC50 (AU565) greater than 8 µM, an IC50 (C8166) greater than 8 µM and an IC50 (UACC-893) greater than 8 µM. For the same compound, the IC50 (UMC-11) was greater than 8 µM.
`CC(=O)O[C@@H]1[C@@H](OC(C)=O)[C@@H](O)[C@H](Oc2c(-c3ccc(O)cc3)oc3cc(O)cc(O)c3c2=O)O[C@H]1C` was tested, and the IC50 (COLO-824) was greater than 10 µM, the IC50 (D-247MG) was greater than 10 µM and the IC50 (DMS-114) was greater than 10 µM. It also gave an IC50 (EFM-19) greater than 10 µM, an IC50 (EW-16) greater than 10 µM and an IC50 (GAMG) greater than 10 µM. The IC50 (GB-1) was greater than 10 µM, the IC50 (GP5d) was greater than 10 µM and the IC50 (HSC-2) was greater than 10 µM. The IC50 (HSC-3) was greater than 10 µM, the IC50 (HT-1376) was greater than 10 µM and the IC50 (IGR-1) was greater than 10 µM. For the same compound, the IC50 (JVM-2) was greater than 10 µM, the IC50 (KYSE-180) was greater than 10 µM and the IC50 (KYSE-510) was greater than 10 µM. For the same compound, the IC50 (LB1047-RCC) was greater than 10 µM, the IC50 (LS-411N) was greater than 10 µM and the IC50 (M059J) was greater than 10 µM. For the same compound, the IC50 (MHH-ES-1) was greater than 10 µM, the IC50 (MLMA) was greater than 10 µM and the IC50 (MS-1) was greater than 10 µM. For the same compound, the IC50 (MeWo) was greater than 10 µM, the IC50 (NB13) was greater than 10 µM and the IC50 (NB6) was greater than 10 µM. The IC50 (NCI-H1299) was greater than 10 µM, the IC50 (NCI-H1993) was greater than 10 µM and the IC50 (NCI-H2030) was greater than 10 µM. The IC50 (NCI-H2170) was greater than 10 µM, the IC50 (NCI-H226) was greater than 10 µM and the IC50 (NCI-H2342) was greater than 10 µM. It also gave an IC50 (NCI-H2452) greater than 10 µM, an IC50 (NCI-H727) greater than 10 µM and an IC50 (NOS-1) greater than 10 µM. For the same compound, the IC50 (RCC10RGB) was greater than 10 µM, the IC50 (RO82-W-1) was greater than 10 µM and the IC50 (SK-LU-1) was greater than 10 µM. The IC50 (SNB-75) was greater than 10 µM, the IC50 (SW1710) was greater than 10 µM and the IC50 (SW1783) was greater than 10 µM. For the same compound, the IC50 (SW684) was greater than 10 µM, the IC50 (T47D) was greater than 10 µM and the IC50 (769-P) was greater than 10 µM. It also gave an IC50 (A101D) greater than 10 µM, an IC50 (A253 cell line) greater than 10 µM and an IC50 (A-375) greater than 10 µM. For the same compound, the IC50 (A388) was greater than 10 µM, the IC50 (AU565) was greater than 10 µM and the IC50 (C8166) was greater than 10 µM. For the same compound, the IC50 (UACC-893) was greater than 10 µM and the IC50 (UMC-11) was greater than 10 µM.
